US10800778B2 (Entasis Therapeutics Limited, priority 2016, dated 2020)
Structures can show the parent of a compound that is named as a salt.

How the values were obtained:
[1] = Stability/conversion of esters in rat intestinal S9; type: in vitro ADME
Procedure: (§1) The human intestinal S9 with the absence of PMSF, human liver S9, rat intestinal S9, and rat liver S9 preparations were obtained from Xenotech (Lenexa, Kans.). The 500-μL incubation solution contained 0.8 mg/mL of enzyme (or no enzyme for buffer stability), 10 μM of test compounds in 100 mM of HEPES buffer, pH 7.4. The hydrolysis reactions were conducted in a 1-mL glass insert (Analytical Sales, Pompton Plains, N.J.) in a shake water bath at 37° C. At 0, 2, 5, 10, 15, 30 and 60 min, the reaction was terminated by pipetting 50 μL incubate to a 96 DeepWell plate (Thermo Fisher Scientific, Rochester, N.Y.) containing 100 μL of acetonitrile with 250 ng/mL of Carbutamide (Sigma-Aldrich, St. Louis, Miss.) as the internal standard. The crashed solutions were then vortexed well followed by centrifuge at 4000 rpm for 15 min at 4° C. The extract was transferred to a new 96 DeepWell plate for LC-MS/MS analysis.
(§2) LC-MS/MS analysis was done using an AB Sciex QTrap 6500 mass spectrometer under positive ionization mode, coupled to a Schimadzu Nexera LC system.
(§3) A Waters Atlantis T3 (3 μm, 3.0×50 mm) column was used for separation. The mobile phase consisted 0.1% formic acid in water (A) and 0.1% formic acid in acetonitrile (B) with a flow rate set at 1.2 mL/min. For the prodrug analysis, the Multiple Reaction Monitoring (MRM) specific for each compound was set up so that both prodrug and its hydrolyzed active can be monitored simultaneously.
(§4) Half-lives listed are based on disappearance of starting ester.

[2] = Stability/conversion of esters in human intestinal S9; type: in vitro ADME
Procedure: as §1, §2, §3, §4

[3] = Stability in pH 7.4 buffer (no enzyme); type: physicochemical; settings: read-out: T1/2 pH 7.4 Buffer
Procedure: as §1, §2, §3, §4

[4] = Stability/conversion of esters in human liver S9; type: in vitro ADME
Procedure: as §1, §2, §3, §4

[5] = Stability/conversion of esters in rat liver S9; type: in vitro ADME
Procedure: as §1, §2, §3, §4

[6] = intestinal S9, pH 7.4, read-out: T1/2 Rat Intestinal S9
[7] = intestinal S9 (without PMSF), pH 7.4, read-out: T1/2 Human Intestinal S9
[8] = liver S9, pH 7.4, read-out: T1/2 Human Liver S9
[9] = liver S9, pH 7.4, read-out: T1/2 Rat Liver S9

Row | Structure (SMILES) | half-life at 10 μM [1, 6] | half-life at 10 μM [2, 7] | half-life at 10 μM ([3]; HEPES buffer without enzyme) | half-life at 10 μM [4, 8] | half-life at 10 μM [5, 9] | half-life at 10 μM ([1]; s9, pH 7.4, read-out: T1/2 Rat Intestinal S9) | half-life at 10 μM ([2]; s9, pH 7.4, read-out: T1/2 Human Intestinal S9) | half-life at 10 μM ([3]; buffer) | half-life at 10 μM ([4]; s9, pH 7.4, read-out: T1/2 Human Liver S9) | half-life at 10 μM ([5]; s9, pH 7.4, read-out: T1/2 Rat Liver S9)
1 | CCCCOC(=O)[C@@H](F)ON1C(=O)N2C[C@H]1C=C(C)[C@H]2C(N)=O [Example 50, butyl (2R)-2-[[(2S,5R)-2-carbamoyl-3-methyl-7-oxo-1,6-diazabicyclo[3.2.1]oct-3-en-6-yl]oxy]-2-fluoro-acetate] | 30 min | 73 min | 120 min | 3.5 min | 2.8 min | – | – | – | – | –
2 | CCCCCOC(=O)[C@@H](F)ON1C(=O)N2C[C@H]1C=C(C)[C@H]2C(N)=O [Example 51, pentyl (2R)-2-[[(2S,5R)-2-carbamoyl-3-methyl-7-oxo-1,6-diazabicyclo[3.2.1]oct-3-en-6-yl]oxy]-2-fluoro-acetate] | 4.1 min | 1.5 min | 75 min | 6.4 min | 1.7 min | – | – | – | – | –
3 | CC1=C[C@@H]2CN(C(=O)N2O[C@H](F)C(=O)OC(C)OC(=O)OC(C)C)[C@@H]1C(N)=O (stereo partly drawn) [Example 53, 1-isopropoxycarbonyloxyethyl (2R)-2-[[(2S,5R)-2-carbamoyl-3-methyl-7-oxo-1,6-diazabicyclo[3.2.1]oct-3-en-6-yl]oxy]-2-fluoro-acetate] | 4.2 min | < 1 min | 4.8 min | 1.7 min | 2 min | – | – | – | – | –
4 | CC1=C[C@@H]2CN(C(=O)N2O[C@H](F)C(=O)OCc2ccccc2)[C@@H]1C(N)=O [Example 54, (2R)-benzyl 2-(((2S,5R)-2-carbamoyl-3-methyl-7-oxo-1,6-diazabicyclo[3.2.1]oct-3-en-6-yl)oxy)-2-fluoroacetate] | – | – | – | – | – | 19 min | 5 min | 22 min | 1.9 min | 0.9 min
5 | CC1=C[C@@H]2CN(C(=O)N2O[C@H](F)C(=O)OCOC(=O)C(C)(C)C)[C@@H]1C(N)=O [Example 64, [(2R)-2-[[(2S,5R)-2-carbamoyl-3-methyl-7-oxo-1,6-diazabicyclo[3.2.1]oct-3-en-6-yl]oxy]-2-fluoro-acetyl]oxymethyl 2,2-dimethylpropanoate] | 1.1 min | < 1 min | 1.2 min | < 1 min | < 1 min | – | – | – | – | –
6 | CCOC(=O)[C@@H](F)ON1C(=O)N2C[C@H]1C=C(C)[C@H]2C(=O)NCO [Example 86, ethyl (2R)-2-fluoro-2-[[(2S,5R)-2-(hydroxymethylcarbamoyl)-3-methyl-7-oxo-1,6-diazabicyclo[3.2.1]oct-3-en-6-yl]oxy]acetate] | 43 min | 36 min | 39 min | 24 min | 23 min | – | – | – | – | –
7 | CC1=C[C@@H](C(N)=O)N2C[C@@H]1N(OCC(=O)OC(C)C)C2=O [Example 96, isopropyl 2-(((2S,5R)-2-carbamoyl-4-methyl-7-oxo-1,6-diazabicyclo[3.2.1]oct-3-en-6-yl)oxy)acetate] | 211 min | 1480 min | > 100 min | 57 min | 10.3 min | – | – | – | – | –

Now from value to compound, other results behind:

Row | half-life at 10 μM [1, 6] | half-life at 10 μM [2, 7] | half-life at 10 μM ([3]; HEPES buffer without enzyme) | half-life at 10 μM [4, 8] | half-life at 10 μM [5, 9] | Structure (SMILES) | half-life at 10 μM ([1]; s9, pH 7.4, read-out: T1/2 Rat Intestinal S9) | half-life at 10 μM ([2]; s9, pH 7.4, read-out: T1/2 Human Intestinal S9) | half-life at 10 μM ([3]; buffer) | half-life at 10 μM ([4]; s9, pH 7.4, read-out: T1/2 Human Liver S9) | half-life at 10 μM ([5]; s9, pH 7.4, read-out: T1/2 Rat Liver S9)
8 | 39 min | 5.7 min | 76 min | 0.84 min | 0.45 min | CCCCCCOC(=O)[C@@H](F)ON1C(=O)N2C[C@H]1C=C(C)[C@H]2C(N)=O [Example 52, hexyl (2R)-2-[[(2S,5R)-2-carbamoyl-3-methyl-7-oxo-1,6-diazabicyclo[3.2.1]oct-3-en-6-yl]oxy]-2-fluoro-acetate] | – | – | – | – | –
9 | 21 min | 22 min | 29 min | 9.9 min | 10 min | CCOC(=O)[C@H](F)ON1C(=O)N2C[C@H]1C=C(C)[C@H]2C(=O)NOC[C@@H]1CCCN1 [Example 60, ethyl (2S)-2-fluoro-2-(((2S,5R)-3-methyl-7-oxo-2-((((S)-pyrrolidin-2-yl)methoxy)carbamoyl)-1,6-diazabicyclo[3.2.1]oct-3-en-6-yl)oxy)acetate TFA salt] | – | – | – | – | –
10 | 1.3 min | < 1 min | 1.7 min | < 1 min | < 1 min | CC1=C[C@@H]2CN(C(=O)N2O[C@H](F)C(=O)Oc2ccc3c(c2)CCC3)[C@@H]1C(N)=O [Example 65, indan-5-yl (2R)-2-[[(2S,5R)-2-carbamoyl-3-methyl-7-oxo-1,6-diazabicyclo[3.2.1]oct-3-en-6-yl]oxy]-2-fluoro-acetate] | – | – | – | – | –
11 | 21 min | 20 min | 26 min | 3.5 min | 3.8 min | CCOC(=O)[C@H](F)ON1C(=O)N2C[C@H]1C=C(C)[C@H]2C(=O)NCO [Example 85, ethyl (2S)-2-fluoro-2-[[(2S,5R)-2-(hydroxymethylcarbamoyl)-3-methyl-7-oxo-1,6-diazabicyclo[3.2.1]oct-3-en-6-yl]oxy]acetate] | – | – | – | – | –
12 | 3.3 min | 1 min | 2.9 min | 0.7 min | 0.7 min | CCOC(=O)C(F)(F)ON1C(=O)N2C[C@H]1C(C)=C[C@H]2C(N)=O [Example 90, ethyl 2-(((2S,5R)-2-carbamoyl-4-methyl-7-oxo-1,6-diazabicyclo[3.2.1]oct-3-en-6-yl)oxy)-2,2-difluoroacetate] | – | – | – | – | –
13 | 397 min | 193 min | 161 min | 24.8 min | 11 min | CCOC(=O)CON1C(=O)N2C[C@H]1C(C)=C[C@H]2C(N)=O [Example 92, ethyl 2-(((2S,5R)-2-carbamoyl-4-methyl-7-oxo-1,6-diazabicyclo[3.2.1]oct-3-en-6-yl)oxy)acetate] | – | – | – | – | –
